Experimental data: ChEMBL document CHEMBL1944578, “Synthesis and anticonvulsant activity of novel 2,6-diketopiperazine derivatives. Part 2: Perhydropyrido[1,2-a]pyrazines” (Eur J Med Chem, 2012)
The source made the active and inactive calls.

What was measured:
[1] = system: Mus musculus; test: Neurotoxicity in Carworth farms No.1 albino mouse assessed as neurological impairment at 100 mg/kg, ip measured after 2 hr; format: toxicity, organism-based; design: dose 100 mg/kg, route intraperitoneal; conditions: in vivo
[2] = system: Mus musculus; test: Anticonvulsant activity in Carworth farms No.1 albino mouse assessed as protection against subcutaneous metrazole-induced seizures at 300 mg/kg, ip measured after 0.5 hrs; format: functional, organism-based; design: dose 300 mg/kg
[3] = system: Mus musculus; test: Anticonvulsant activity in Carworth farms No.1 albino mouse assessed as protection against maximum electroshock at 100 mg/kg, ip measured after 0.5 hrs; format: functional, organism-based; design: dose 100 mg/kg
[4] = system: Mus musculus; test: Anticonvulsant activity in Carworth farms No.1 albino mouse assessed as protection against maximum electroshock at 300 mg/kg, ip measured after 0.5 hrs; format: functional, organism-based; design: dose 300 mg/kg
[5] = system: Mus musculus; test: Neurotoxicity in Carworth farms No.1 albino mouse assessed as neurological impairment at 100 mg/kg, ip measured after 1 hr; format: toxicity, organism-based; design: dose 100 mg/kg, route intraperitoneal; conditions: in vivo
[6] = system: Mus musculus; test: Neurotoxicity in Carworth farms No.1 albino mouse assessed as neurological impairment at 100 mg/kg, ip measured after 0.25 hrs; format: toxicity, organism-based; design: dose 100 mg/kg, route intraperitoneal; conditions: in vivo
[7] = system: Mus musculus; test: Anticonvulsant activity in Carworth farms No.1 albino mouse assessed as protection against subcutaneous metrazole-induced seizures at 100 mg/kg, ip measured after 4 hrs; format: functional, organism-based; design: dose 100 mg/kg
[8] = system: Mus musculus; test: Neurotoxicity in Carworth farms No.1 albino mouse assessed as neurological impairment at 300 mg/kg, ip measured after 0.5 hrs; format: toxicity, organism-based; design: dose 300 mg/kg, route intraperitoneal; conditions: in vivo
[9] = system: Mus musculus; test: Anticonvulsant activity in Carworth farms No.1 albino mouse assessed as protection against subcutaneous metrazole-induced seizures at 30 mg/kg, ip measured after 4 hrs; format: functional, organism-based; design: dose 30 mg/kg
[10] = system: Mus musculus; test: Anticonvulsant activity in Carworth farms No.1 albino mouse assessed as protection against 6 Hz electric current-induced seizure at 100 mg/kg, ip measured after 0.25 hrs; format: functional, organism-based; design: dose 100 mg/kg
[11] = system: Mus musculus; test: Anticonvulsant activity in Carworth farms No.1 albino mouse assessed as protection against subcutaneous metrazole-induced seizures at 30 mg/kg, ip measured after 0.5 hrs; format: functional, organism-based; design: dose 30 mg/kg
[12] = system: Mus musculus; test: Anticonvulsant activity in Carworth farms No.1 albino mouse assessed as protection against 6 Hz electric current-induced seizure at 100 mg/kg, ip measured after 2 hrs; format: functional, organism-based; design: dose 100 mg/kg
[13] = system: Mus musculus; test: Anticonvulsant activity in Carworth farms No.1 albino mouse assessed as protection against maximum electroshock at 300 mg/kg, ip measured after 4 hrs; format: functional, organism-based; design: dose 300 mg/kg
[14] = system: Mus musculus; test: Neurotoxicity in Carworth farms No.1 albino mouse assessed as neurological impairment at 30 mg/kg, ip measured after 0.5 hrs; format: toxicity, organism-based; design: dose 30 mg/kg, route intraperitoneal; conditions: in vivo
[15] = system: Mus musculus; test: Anticonvulsant activity in Carworth farms No.1 albino mouse assessed as protection against 6 Hz electric current-induced seizure at 100 mg/kg, ip measured after 0.5 hrs; format: functional, organism-based; design: dose 100 mg/kg
[16] = system: Mus musculus; test: Neurotoxicity in Carworth farms No.1 albino mouse assessed as neurological impairment at 300 mg/kg, ip measured after 4 hrs; format: toxicity, organism-based; design: dose 300 mg/kg, route intraperitoneal; conditions: in vivo
[17] = system: Mus musculus; test: Neurotoxicity in Carworth farms No.1 albino mouse assessed as neurological impairment at 100 mg/kg, ip measured after 0.5 hrs; format: toxicity, organism-based; design: dose 100 mg/kg, route intraperitoneal; conditions: in vivo
[18] = system: Mus musculus; test: Anticonvulsant activity in Carworth farms No.1 albino mouse assessed as protection against subcutaneous metrazole-induced seizures at 100 mg/kg, ip measured after 0.5 hrs; format: functional, organism-based; design: dose 100 mg/kg
[19] = system: Mus musculus; test: Neurotoxicity in Carworth farms No.1 albino mouse assessed as neurological impairment at 100 mg/kg, ip measured after 4 hrs; format: toxicity, organism-based; design: dose 100 mg/kg, route intraperitoneal; conditions: in vivo
[20] = system: Mus musculus; test: Anticonvulsant activity in Carworth farms No.1 albino mouse assessed as protection against subcutaneous metrazole-induced seizures at 300 mg/kg, ip measured after 4 hrs; format: functional, organism-based; design: dose 300 mg/kg
[21] = system: Mus musculus; test: Neurotoxicity in Carworth farms No.1 albino mouse assessed as neurological impairment at 30 mg/kg, ip measured after 4 hrs; format: toxicity, organism-based; design: dose 30 mg/kg, route intraperitoneal; conditions: in vivo
[22] = system: Mus musculus; test: Anticonvulsant activity in Carworth farms No.1 albino mouse assessed as protection against maximum electroshock at 30 mg/kg, ip measured after 0.5 hrs; format: functional, organism-based; design: dose 30 mg/kg
[23] = system: Mus musculus; test: Anticonvulsant activity in Carworth farms No.1 albino mouse assessed as protection against 6 Hz electric current-induced seizure at 100 mg/kg, ip measured after 1 hrs; format: functional, organism-based; design: dose 100 mg/kg
[24] = system: Mus musculus; test: Anticonvulsant activity in Carworth farms No.1 albino mouse assessed as protection against maximum electroshock at 100 mg/kg, ip measured after 4 hrs; format: functional, organism-based; design: dose 100 mg/kg
[25] = system: Mus musculus; test: Anticonvulsant activity in Carworth farms No.1 albino mouse assessed as protection against maximum electroshock at 30 mg/kg, ip measured after 4 hrs; format: functional, organism-based; design: dose 30 mg/kg
[26] = system: Mus musculus; test: Anticonvulsant activity in Carworth farms No.1 albino mouse assessed as protection against 6 Hz electric current-induced seizure at 100 mg/kg, ip measured after 4 hrs; format: functional, organism-based; design: dose 100 mg/kg
[27] = species on record: Mus musculus; test: Anticonvulsant activity in electric shock-induced Carworth farms No.1 albino mouse assessed as time of peak effect; format: functional
[28] = system: Mus musculus; test: Anticonvulsant activity in ip dosed Carworth farms No.1 albino mouse assessed as protection against 6 Hz electric current-induced seizure measured after 0.25 hrs; format: functional

O=C1CN2CCCC[C@H]2C(=O)N1
inactive: Activity [2] | Activity [3] | Activity [4] | Activity [7] | Activity [9] | Activity [11] | Activity [12] | Activity [13] | Activity [15] | Activity [18] | Activity [20] | Activity [22] | Activity [24] | Activity [25] | Activity [26]
Non-toxic: Activity [1] | Activity [5] | Activity [6] | Activity [8] | Activity [14] | Activity [16] | Activity [17] | Activity [19] | Activity [21]
active: Activity [10] | Activity [23]

O=C1[C@H]2CCCCN2[C@@H](c2ccccc2)C(=O)N1Cc1ccccc1
Non-toxic: Activity [1] | Activity [5] | Activity [6] | Activity [8] | Activity [14] | Activity [16] | Activity [17] | Activity [19] | Activity [21]
inactive: Activity [2] | Activity [3] | Activity [4] | Activity [7] | Activity [9] | Activity [10] | Activity [11] | Activity [12] | Activity [13] | Activity [15] | Activity [18] | Activity [20] | Activity [22] | Activity [23] | Activity [24] | Activity [25] | Activity [26]

Cl.O=C1[C@H](c2ccccc2)N2CCCC[C@H]2C(=O)N1CCc1ccccc1
Non-toxic: Activity [1] | Activity [5] | Activity [6] | Activity [8] | Activity [14] | Activity [16] | Activity [17] | Activity [19] | Activity [21]

O=C1[C@H]2CCCCN2[C@H](c2ccccc2)C(=O)N1CCc1ccccc1 [listing 1 of 2 here]
Non-toxic: Activity [1] | Activity [5] | Activity [6] | Activity [8] | Activity [14] | Activity [16] | Activity [17] | Activity [19] | Activity [21]

O=C1[C@H](c2ccccc2)N2CCCC[C@H]2C(=O)N1CCc1ccccc1 [listing 1 of 2 here]
Non-toxic: Activity [8] | Activity [14] | Activity [16] | Activity [17] | Activity [19] | Activity [21]

O=C1CN2CCCC[C@@H]2C(=O)N1
inactive: Activity [2] | Activity [3] | Activity [4] | Activity [7] | Activity [9] | Activity [10] | Activity [11] | Activity [12] | Activity [13] | Activity [18] | Activity [20] | Activity [22] | Activity [24] | Activity [25] | Activity [26]
Non-toxic: Activity [1] | Activity [5] | Activity [6] | Activity [8] | Activity [14] | Activity [16] | Activity [17] | Activity [19] | Activity [21]
active: Activity [15] | Activity [23]

Cl.O=C1[C@H]2CCCCN2[C@H](c2ccccc2)C(=O)N1CCc1ccccc1
Non-toxic: Activity [1] | Activity [5] | Activity [6] | Activity [8] | Activity [14] | Activity [16] | Activity [17] | Activity [19] | Activity [21]
0.25 h: Time [27]
78.5 mg/kg: ED50 [28]

Cl.O=C1[C@H]2CCCCN2[C@H](c2ccccc2)C(=O)N1Cc1ccccc1
Toxic: Activity [8]
Non-toxic: Activity [14] | Activity [16] | Activity [17] | Activity [19] | Activity [21]
inactive: Activity [2] | Activity [3] | Activity [7] | Activity [9] | Activity [11] | Activity [18] | Activity [20] | Activity [22] | Activity [24] | Activity [25]
active: Activity [4] | Activity [13]

O=C1NC(=O)[C@@H](c2ccccc2)N2CCCC[C@@H]12
Non-toxic: Activity [1] | Activity [5] | Activity [6] | Activity [8] | Activity [14] | Activity [16] | Activity [17] | Activity [19] | Activity [21]
inactive: Activity [2] | Activity [3] | Activity [4] | Activity [7] | Activity [9] | Activity [10] | Activity [11] | Activity [12] | Activity [13] | Activity [15] | Activity [18] | Activity [20] | Activity [22] | Activity [23] | Activity [24] | Activity [25] | Activity [26]

O=C1[C@H](c2ccccc2)N2CCCC[C@H]2C(=O)N1CCc1ccccc1 [listing 2 of 2 here]
active: Activity [10] | Activity [15]
inactive: Activity [2] | Activity [3] | Activity [4] | Activity [7] | Activity [9] | Activity [11] | Activity [12] | Activity [13] | Activity [18] | Activity [20] | Activity [22] | Activity [23] | Activity [24] | Activity [25] | Activity [26]

O=C1[C@H]2CCCCN2[C@H](c2ccccc2)C(=O)N1CCc1ccccc1 [listing 2 of 2 here]
inactive: Activity [2] | Activity [3] | Activity [4] | Activity [7] | Activity [9] | Activity [11] | Activity [13] | Activity [18] | Activity [20] | Activity [22] | Activity [24] | Activity [25] | Activity [26]

CC[C@@H](C(N)=O)N1CCCC1=O [LEVETIRACETAM]
1 h: Time [27]
